In patent US20080114047A1 (priority 2003, published 2008):
Where “and” joins values, the source holds several entries; their conditions need not be identical. Equal values may be shown once. Read-outs that look alike come from different tables or passages of the source.

Legend:
[1] = system: L. donovani axenic amastigotes; experiment: In vitro anti-leishmania activity (IC50 vs. L. donovani axenic amastigotes); assay type: cell-based; details: for IC50: Leishmania donovani
J774 macrophages = experiment: Toxicity against J774 macrophages (IC50); assay type: cell-based; details: Mus musculus, Tables I-III, V
[2] = system: Trypanosoma brucei rhodesiense; experiment: Anti-protozoan data: T.b.r. IC50; assay type: cell-based; details: Tables VI(a), VI(c), read-out: T.b.r. IC50
Plasmodium falciparum = experiment: Anti-protozoan data: P. falcip. IC50; assay type: cell-based; details: Tables VI(a), VI(c), read-out: P. falcip. IC50
Trypanosoma cruzi = experiment: Anti-protozoan data: T. cruzi IC50; assay type: cell-based; details: Tables VI(a), VI(c), read-out: T. cruzi IC50
DNA = DNA binding ΔTm; details: Tables VI(a), VI(c)
[3] = system: Mycobacterium tuberculosis; experiment: Compounds tested against Mycobacterium tuberculosis (MIC90); assay type: cell-based; details: read-out: M. tb. MIC90
Candida albicans = experiment: Anti-fungal data: Candida albicans; assay type: cell-based
Aspergillus fumigatus = experiment: Anti-fungal data: Aspergillus fumigatus; assay type: cell-based
Cryptococcus neoformans = experiment: Anti-fungal data: Cryptococcus neoformans; assay type: cell-based
[4] = Tables VI(a), VI(c), read-out: Leishmania donovani IC50
[5] = axenic amastigotes, Tables I-V, read-out: IC50 vs. L. donovani

Structure (SMILES)	IC50 [1, 4] [µM]	IC50 [1, 5] [µM]	IC50 (J774 macrophages) [µM]	IC50 [2] [µM]	IC50 (Plasmodium falciparum) [µM]	melting point [°C]	IC50 (in vitro) [µM]	IC50 (Trypanosoma cruzi) [µM]	DNA binding Δ Tm (DNA)	MIC90 [3]	MFC (Candida albicans; strain A39) [µg/mL]	MIC80 (Candida albicans; strain A39) [µg/mL]	MIC (Candida albicans; strain A39, read-out: Candida albicans (A39) MIC100) [µg/mL]	MIC80 (Aspergillus fumigatus; strain DUMC 168.95) [µg/mL]	MIC (Aspergillus fumigatus; strain DUMC 168.95, read-out: Aspergillus. Fumigatus (DUMC 168.95) MIC100) [µg/mL]	MFC (Cryptococcus neoformans; strain H99) [µg/mL]	MIC80 (Cryptococcus neoformans; strain H99) [µg/mL]	MIC (Cryptococcus neoformans; strain H99, read-out: Cryptococcus neoformans (H99) MIC100) [µg/mL]	selectivity for axenic amastigotes over J774 macrophages (fold more active against the parasites compared to the mammalian host cells) ([1]; L. donovani vs. J774 macrophages) [fold]
Cl.Cl.c1cc(OCCCOc2ccc(C3=NCCN3)cc2)cc(-c2cc3cc(C4=NCCN4)ccc3o2)c1 [Compound 34, 2-(2-(3-(3-(4-(4,5-Dihydro-1H-imidazol-2-yl)phenoxy)propoxy)phenyl)benzofuran-5-yl) -4,5-dihydro-1H-imidazole dihydrochloride]	5.93 ± 0.04	5.93 ± 0.04	7.1 ± 0.8	1.17	0.108	193 to 197	6.52												
Cl.Cl.N=C(N)c1ccc(OCCCCOc2cccc(-c3cc4cc(C(=N)N)ccc4o3)c2)cc1 [Compound 35, 2-(3-(4-(4-Carbamimidoylphenoxy)butoxy)phenyl)benzofuran-5-carboxamidine dihydrochloride]	4.45 ± 1.93	4.45 ± 1.93	9.6 ± 1.5	0.779	0.0755	284 to 286	8.06												
Cl.Cl.N=C(N)c1ccc(OCCCCCOc2cccc(-c3cc4cc(C(=N)N)ccc4o3)c2)cc1 [Compound 38, 2-(3-(5-(4-Carbamimidoylphenoxy)pentyloxy)phenyl)benzofuran-5-carboxamidine dihydrochloride]	10.5 ± 2.11			0.863	0.428	165 to 168	3.02	7.78	21.1	1.96 µg/mL and 3.48 µM	12.5	0.78	6.25	50	> 100	3.12	0.39	0.781	
Cl.Cl.N=C(N)c1ccc(OCCCCOc2cccc(-c3cc4ccc(C(=N)N)cc4o3)c2)cc1 [Compound 59, 2-(3-(4-(4-Carbamimidoylphenoxy)butoxy)phenyl)benzofuran-6-carboxamidine dihydrochloride]	5.93 ± 0.24	5.93 ± 0.24	11 ± 2	1.33	0.321	278 to 280	7.57												
CC(C)NC(=N)c1ccc(OCCCOc2ccc(-c3cc4ccc(C(=N)NC(C)C)cc4o3)cc2)cc1.Cl.Cl [Compound 69, 2-(4-(3-(4-(N-Isopropylcarbamimidoyl)phenoxy)propoxy)phenyl)-N-isopropylbenzofuran-6-carboxamidine dihydrochloride]	3.18 ± 0.19	3.18 ± 0.19	9.9 ± 1.7	0.0881	0.0366	266 to 270	49.9	28.4		0.54 µg/mL and 0.92 µM									
Cl.Cl.c1cc(C2=NCCN2)ccc1OCCCOc1ccc(-c2cc3ccc(C4=NCCN4)cc3o2)cc1 [Compound 70, 2-(2-(4-(3-(4-(4,5-Dihydro-1H-imidazol-2-yl)phenoxy)propoxy)phenyl)benzofuran-6-yl)-4,5-dihydro-1H-imidazole dihydrochloride]	0.48 ± 0.16	0.48 ± 0.16	2.4 ± 0.1	0.144	0.0418	283 to 284	16.8	7.11		0.86 µg/mL and 1.5 µM									5
Cl.Cl.N=C(N)c1ccc(OCCCCOc2ccc(-c3cc4ccc(C(=N)N)cc4o3)cc2)cc1 [Compound 71, 2-(4-(4-(4-Carbamimidoylphenoxy)butoxy)phenyl)benzofuran-6-carboxamidine dihydrochloride]	3.22 ± 0.96	3.22 ± 0.96	0.86 ± 0.2	1.06	0.166	324 to 325	14.1	12.5		0.45 µg/mL and 0.85 µM									
N=C(N)c1ccc(OCCCCCOc2ccc(C(=N)N)cc2)cc1 [Pentamidine, pentamidine, reference compound]		2 ± 0.6	23 ± 6																
